From PubChem BioAssay (NCI) come the findings set out here.

Among the test systems are SK-OV-3 ovarian; HL-60(TB) leukemia; MALME-3M melanoma; SNB-19 CNS; LOX IMVI melanoma; A549 NSCLC; EKVX NSCLC; HOP-92 NSCLC; MOLT-4 leukemia; NCI-H522 lung.
Test in all cases: NCI-60 cell line screen, 48 h

Molecules are shown by their SMILES.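 Following 48 hours of exposure in 96-well plates, responses at five concentrations were used to interpolate endpoints linearly. GI50 marks 50% less growth. TGI denotes the concentration required for complete inhibition of growth.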

With `CCOC(=O)N1CCN(CCCCCOc2ccccc2C2CCCCC2)CC1`, the GI50 is 6.08 µM in the experiment on SK-OV-3 ovarian; 1.39 µM in the experiment with HL-60(TB) leukemia; 4.91 µM in the experiment on MALME-3M melanoma; 10.7 µM with SNB-19 CNS; 2.85 µM in the experiment with LOX IMVI melanoma; 5.01 µM with A549 NSCLC. The results for the GI50 in the experiment on EKVX NSCLC, with HOP-92 NSCLC and in the experiment with MOLT-4 leukemia were 3.23 µM, 4.07 µM and 2.92 µM, respectively. Moreover, the TGI with SK-OV-3 ovarian turned out to be 19.1 µM; in the experiment on HL-60(TB) leukemia, 3.5 µM; with MALME-3M melanoma, 19.2 µM; in the experiment with SNB-19 CNS, 22.6 µM; in the experiment on LOX IMVI melanoma, 12.5 µM; in the experiment with A549 NSCLC it was 17.3 µM. The TGI in the experiment on EKVX NSCLC was 16.5 µM; in the experiment on HOP-92 NSCLC it was 17.5 µM; in the experiment with MOLT-4 leukemia, 13 µM.

Turning to `O=C(c1cccs1)C1NO[N+]([O-])=C1c1cccs1` (centres undefined), the GI50 was 0.174 µM with NCI-H522 lung; 18.6 µM with SK-OV-3 ovarian; 0.517 µM with MALME-3M melanoma; 29.9 µM with SNB-19 CNS; 2.4 µM in the experiment with LOX IMVI melanoma; 9.89 µM in the experiment with A549 NSCLC. The GI50 is 3.71 µM in the experiment on EKVX NSCLC, 1.65 µM in the experiment with HOP-92 NSCLC and 2.86 µM in the experiment on MOLT-4 leukemia. Further, the TGI is 0.336 µM in the experiment with NCI-H522 lung; 32.8 µM in the experiment on SK-OV-3 ovarian; 1.19 µM in the experiment on MALME-3M melanoma; over 79.2 µM in the experiment on SNB-19 CNS; 6.5 µM with LOX IMVI melanoma; 34.4 µM in the experiment on A549 NSCLC. Besides, the TGI with EKVX NSCLC was found to be 10.9 µM; with HOP-92 NSCLC, 3.59 µM; in the experiment on MOLT-4 leukemia, 9.19 µM.

Consider `COc1cc(CNc2nc3ccc(C(F)(F)F)cc3nc2-c2ccccc2)cc(OC)c1OC`, for which the TGI in the experiment with NCI-H522 lung is 55.7 µM; in the experiment on SK-OV-3 ovarian, over 100 µM; in the experiment with HL-60(TB) leukemia, 55.9 µM; in the experiment on MALME-3M melanoma it was over 100 µM; with SNB-19 CNS it was over 100 µM; in the experiment with LOX IMVI melanoma, over 100 µM. In addition, the TGI in the experiment on A549 NSCLC is over 100 µM; with EKVX NSCLC, 59.6 µM; in the experiment on MOLT-4 leukemia it was 56.8 µM.

`Cc1ccc(C)c(N2C(=O)C(=O)C(c3nc4ccccc4s3)C(=Nc3cccc4c(=O)[nH][nH]c(=O)c34)C2=O)c1` (centres undefined): the TGI in the experiment with SK-OV-3 ovarian, in the experiment with HL-60(TB) leukemia, with MALME-3M melanoma, in the experiment with SNB-19 CNS, with LOX IMVI melanoma and in the experiment with A549 NSCLC was over 100 µM throughout. Further, the TGI in the experiment on EKVX NSCLC, in the experiment on HOP-92 NSCLC and in the experiment on MOLT-4 leukemia was over 100 µM each time.

For `C=CC1=C(C)C2=NC1=CC1=NC(=CC3=C(C)C4=C(O)[C@H](C(=O)OC)C(=C5NC(=C2)[C@@H](C)[C@@H]5CCC(=O)O)C4=N3)C(CC)=C1C`, the TGI in the experiment with SK-OV-3 ovarian is over 40 µM; with MALME-3M melanoma, over 100 µM; with SNB-19 CNS, over 100 µM; with A549 NSCLC, over 43.9 µM; in the experiment with HOP-92 NSCLC, 3.98 µM.

`CSc1ccc(N(C)c2nc(C)nc3c2CCC3)cc1`: the GI50 in the experiment with NCI-H522 lung, with SK-OV-3 ovarian, in the experiment with HL-60(TB) leukemia, in the experiment with SNB-19 CNS, in the experiment on LOX IMVI melanoma and with A549 NSCLC was under 0.01 µM in each case. The GI50 with EKVX NSCLC and in the experiment on MOLT-4 leukemia was under 0.01 µM throughout. Besides, the TGI in the experiment with NCI-H522 lung is under 0.01 µM; with SK-OV-3 ovarian, 16.1 µM; with HL-60(TB) leukemia, under 0.01 µM; with SNB-19 CNS it was over 100 µM; in the experiment on LOX IMVI melanoma it was 13.7 µM; in the experiment with A549 NSCLC, over 100 µM. Moreover, the TGI with EKVX NSCLC worked out at 82 µM; with MOLT-4 leukemia, 25.4 µM.

With `C/C1=C\CC[C@@](C)(O)[C@@H]2C[C@H](CC/C(C)=C/CC1)C1(CC1)C(=O)O2`, the GI50 with NCI-H522 lung was 35.1 µM; with SK-OV-3 ovarian, 39 µM; with HL-60(TB) leukemia it was 15.4 µM; in the experiment on MALME-3M melanoma it was 21.6 µM; in the experiment on SNB-19 CNS, 61.9 µM; in the experiment with LOX IMVI melanoma, 18.8 µM. Besides, the figures for the GI50 in the experiment on A549 NSCLC, in the experiment with EKVX NSCLC and in the experiment with MOLT-4 leukemia were 42.8 µM, 45.4 µM and 15.5 µM, respectively. Also, the TGI with NCI-H522 lung is over 100 µM; in the experiment with SK-OV-3 ovarian, over 100 µM; in the experiment with HL-60(TB) leukemia, 33.4 µM; with MALME-3M melanoma, 64.8 µM; in the experiment on SNB-19 CNS it was over 100 µM; with LOX IMVI melanoma, 34.5 µM. The TGI in the experiment on A549 NSCLC is over 100 µM; in the experiment with EKVX NSCLC, over 100 µM; in the experiment on MOLT-4 leukemia it was 38.2 µM.

`CC1=NN(C(=O)c2ccncc2)C(=O)C1N=Nc1ccc(F)cc1` (centres undefined): the TGI with NCI-H522 lung, in the experiment with SK-OV-3 ovarian, in the experiment with HL-60(TB) leukemia, with MALME-3M melanoma, in the experiment with SNB-19 CNS and in the experiment with LOX IMVI melanoma was over 100 µM each time. In addition, the TGI with A549 NSCLC, with EKVX NSCLC and in the experiment on HOP-92 NSCLC was over 100 µM throughout.

In the case of `Cc1ccccc1/C=C/C(=O)c1ccccc1`, the TGI with NCI-H522 lung stood at 46.8 µM; with SK-OV-3 ovarian, 67.3 µM; in the experiment with MALME-3M melanoma it was 35 µM; with SNB-19 CNS it was 30.3 µM; in the experiment with A549 NSCLC it was 65.1 µM; with EKVX NSCLC, 33.7 µM. In addition, the TGI with HOP-92 NSCLC is 37.6 µM; with MOLT-4 leukemia it was 60.7 µM.

As to `O=C1[C@H]2ON(c3ccccc3)C(c3ccco3)[C@H]2C(=O)N1c1ccc(Cc2ccc(N3C(=O)[C@@H]4ON(c5ccccc5)C(c5ccco5)[C@@H]4C3=O)cc2)cc1` (some centres undefined), the TGI in the experiment on SK-OV-3 ovarian, with HL-60(TB) leukemia, in the experiment on MALME-3M melanoma, in the experiment on LOX IMVI melanoma, in the experiment with A549 NSCLC and in the experiment on HOP-92 NSCLC was over 100 µM throughout. Further, the TGI in the experiment with MOLT-4 leukemia was over 100 µM.

As for `COc1ccc2c(NCCCCCCNc3c4ccccc4nc4cc(OC)ccc34)c3ccccc3nc2c1`, the TGI with NCI-H522 lung is 0.34 µM; in the experiment with SK-OV-3 ovarian, 2.04 µM; with HL-60(TB) leukemia, 0.379 µM; in the experiment with MALME-3M melanoma it was 2.55 µM; in the experiment with SNB-19 CNS, 3.75 µM; in the experiment with A549 NSCLC it was 11.9 µM. In addition, the TGI with EKVX NSCLC was 2.53 µM; in the experiment on HOP-92 NSCLC, 2.07 µM.

In the case of `COc1c(O)c(OC)c2oc(-c3ccc(O)cc3)c(OC)c(=O)c2c1O`, the TGI in the experiment on NCI-H522 lung is 70.9 µM; with SK-OV-3 ovarian, 53.7 µM; with HL-60(TB) leukemia it was over 100 µM; with MALME-3M melanoma it was over 100 µM; with SNB-19 CNS, over 100 µM; with LOX IMVI melanoma, over 100 µM. In addition, the TGI in the experiment with A549 NSCLC, with EKVX NSCLC and with MOLT-4 leukemia was over 100 µM throughout.
